A short description of one data set: in vitro. Particulars: human. An excerpt: (§1) MCF7 over express estrogen alpha-receptors.
(§2) MCF7 cells over express estrogen alpha-receptors.

In data set [1] the test system is MV522 Target Cell Line (lung-derived adenocarcinoma). Briefly: cells. The note with it: MV522, 2 h, read-out: Mean IC50 value.
Data set [2] has the same test system. Briefly: cells. Particulars: MV522, 48 h, read-out: Mean IC50 value.
Data set [3] deals with 8392B Nontarget Cell Line (hematopoietic). Briefly: cells. The note with it: 2 h, read-out: Mean IC50 value.
Another data set has as its system MCF7 (ER positive). It is filed as cell-based. The note with it: MCF7 (ER positive) versus HT29 (ER negative), result in words.
Source text: as §1, §2

Data set [4] relates to 8392B Nontarget Cell Line (hematopoietic). Briefly: cells. The note with it: 48 h, read-out: Mean IC50 value.

Read-outs that look alike come from different tables or passages of the source. Bounds are passed on as bounds.

As to `CC1=C(CCC(=O)Oc2ccc3c(c2)CCC2C3CC[C@]3(C)C(O)CCC23)C2=C(C)C3(CC3)[C@@](C)(O)C(=O)C2=C1` (stereo partly drawn) [Analog 108], the concentration for half-maximal inhibition (IC50) is more than 55 µM in “in vitro”, 12.3 ± 2.3 µM in data set [1], 0.52 ± 0.05 µM in data set [2] and more than 55 µM in data set [3].
As for `CC1=C(CCC(=O)Oc2ccc3c(c2)CCC2C3CC[C@]3(C)C(=O)CCC23)C2=C(C)C3(CC3)[C@@](C)(O)C(=O)C2=C1` (stereo partly drawn) [Analog 110], the IC50 in the data set “in vitro” is more than 19 µM; in data set [1], more than 55 µM; in data set [3], more than 55 µM; in data set [4], 25.3 ± 2.1 µM. Further, in the data set on MCF7 (ER positive), the “preferential killing of ER positive cells” value is on record as “preferentially killed”.

Broadly, the IC50 is the midpoint of a concentration-inhibition curve.

These data come from US12269793B2, “Affinity illudofulvene conjugates” (AF Chemicals, LLC, priority 2019, dated 2025).
